# Test results reported in patent US20250281464A1, “TREATMENT OF PATHOGENIC NEISSERIA SP. INFECTION WITH TRIAZOLE ANTIFUNGAL AGENTS” (Virginia Tech Intellectual Properties, Inc., priority 2022, published 2025).
# Read-outs that look alike come from different tables or passages of the source.
# Experiments:
# Lactobacillus casei = assay: MIC against normal gut microbiota; type: cell-based; details: Lactobacillus casei (1 strain)
# Text: (§1) Disrupting the intestinal microbiota using broad-spectrum antimicrobial therapy increases the susceptibility of hosts to C. difficile colonization.
# Lactobacillus brevis = assay: MIC against normal gut microbiota; type: cell-based; details: Lactobacillus brevis (1 strain)
# Text: as §1
# Lactobacillus rhamnosus = assay: MIC against normal gut microbiota; type: cell-based; details: Lactobacillus rhamnosus (1 strain)
# Text: as §1
# Bacteroides dorei = assay: MIC against normal gut microbiota; type: cell-based; details: Bacteroides dorei (2 strains)
# Text: as §1
# Staphylococcus aureus = assay: MIC against normal gut microbiota; type: cell-based; details: Staphylococcus aureus (1 strain)
# Text: as §1
# Escherichia coli = assay: MIC against normal gut microbiota; type: cell-based; details: Escherichia coli (1 strain)
# Text: as §1
# [1] = MIC against normal gut microbiota; type: cell-based
# Text: as §1
# Bacteroides fragilis = assay: MIC against normal gut microbiota; type: cell-based; details: Bacteroides fragilis (4 strains)
# Text: as §1
# Enterococcus faecium = assay: MIC against normal gut microbiota; type: cell-based; details: Enterococcus faecium (1 strain)
# Text: as §1
# [2] = system: Bifidobacterium angulatum; assay: MIC against normal gut microbiota; type: cell-based; details: Bifidobacterium angulatum (1 strain)
# Text: as §1
# Enterococcus faecalis = assay: MIC against normal gut microbiota; type: cell-based; details: Enterococcus faecalis (1 strain)
# Text: as §1
# N. meingitidis = assay: MIC against Neisseria spp.; type: cell-based, Neisseria meningitidis; details: N. meingitidis (5 strains)
# L. johnsonii = assay: MIC against commensal vaginal Lactobacillus strains; type: cell-based, Lactobacillus johnsonii; details: for MIC: Lactobacillus johnsonii, L. johnsonii HM-643; for MIC Range: Table 6, L. johsonii (2 strains)
# Text: (§2) N. gonorrhoeae pathogenesis greatly depends on colonization of the reproductive tract. One of the natural barriers of such colonization is an intact healthy microbiome. Species of lactobacilli present in the genitourinary tract play a significant role in hindering colonization by Neisseria(1).
# (§3) A healthy vaginal microbiome that is dominated by Lactobacillus spp. is less susceptible to N. gonorrhoeae infection and other sexually transmitted diseases (STDs). […] We tested the activity of azoles against important members of healthy vaginal microbiota that inhibit N. gonorrhoeae colonization.
# N. gonorrhoeae = assay: Post-antibiotic effect (PAE) against N. gonorrhoeae; type: cell-based, Neisseria gonorrhoeae; details: 1 h exposure at 10×MIC
# Text: Determining the PAE of a new antimicrobial is an important step for dosing and has clinical importance.
# L. jensenii = assay: MIC against commensal vaginal Lactobacillus strains; type: cell-based, Lactobacillus jensenii; details: for MIC: Lactobacillus jensenii; for MIC Range: Table 6, L. jensenii (7 strains)
# Text: as §2, §3
# L. gasseri = assay: as above; type: cell-based, Lactobacillus gasseri; details: for MIC: Lactobacillus gasseri; for MIC Range: Table 6, L. gasseri (4 strains)
# Text: as §2, §3
# N. lactamica = assay: MIC against Neisseria spp.; type: cell-based; details: N. lactamica (1 strain)
# Text: (§4) Intrigued by the specificity and potent activity of azoles against N. gonorrhoeae, we evaluated the extent of the azoles' antibacterial activity against other Neisseria species (Table 8).
# N. mucosa = assay: MIC against Neisseria spp.; type: cell-based; details: N. mucosa (1 strain)
# Text: as §4
# N. flavescens = assay: MIC against Neisseria spp.; type: cell-based; details: N. flavescens (1 strain)
# Text: as §4
# N. gonorrhoeae isolates = assay: MIC against panel of N. gonorrhoeae clinical isolates; type: cell-based, Neisseria gonorrhoeae; details: for MIC50 / MIC90: Neisseria gonorrhoeae; for MIC50: read-out: MIC50; for MIC90: read-out: MIC90
# L. crispatus = assay: MIC against commensal vaginal Lactobacillus strains; type: cell-based, Lactobacillus crispatus; details: for MIC: Lactobacillus crispatus; for MIC Range: Table 6, L. crispatus (3 strains)
# Text: as §2, §3
# [3] = system: resistant N. gonorrhoeae isolates; assay: MIC against resistant N. gonorrhoeae isolates by agar dilution; type: cell-based, Neisseria gonorrhoeae
# [4] = system: commensal vaginal lactobacilli strains; assay: MIC against all commensal vaginal Lactobacillus strains tested; type: cell-based, Lactobacillus spp.; details: all species/strains of Lactobacillus tested (Example 2); read-out: MIC
# Text: as §2, §3
# [5] = Bacteroides adolescentis (2 strains)
# [6] = Table 1, 104 N. gonorrhoeae isolates
# [7] = Table 3, 103 N. gonorrhoeae isolates with different resistance profiles
smiles,measurement,setting,value
CCC(C)n1ncn(-c2ccc(N3CCN(c4ccc(OCC5COC(Cn6cncn6)(c6ccc(Cl)cc6Cl)O5)cc4)CC3)cc2)c1=O (stereo not drawn) [Itraconazole],MIC Range,Lactobacillus casei,>256 µg/mL
same,MIC Range,Lactobacillus brevis,>256 µg/mL
same,MIC Range,Lactobacillus rhamnosus,>256 µg/mL
same,MIC Range,Bacteroides dorei,>256 µg/mL
same,MIC Range,Staphylococcus aureus,>256 µg/mL
same,MIC Range,Escherichia coli,>256 µg/mL
same,MIC Range,[1]; [5],>256 µg/mL
same,MIC Range,[1]; Bacteroides breve (2 strains),>256 µg/mL
same,MIC Range,[1]; Bacteroides longum (2 strains),>256 µg/mL
same,MIC Range,Bacteroides fragilis,>256 µg/mL
same,MIC Range,Enterococcus faecium,>256 µg/mL
same,MIC Range,[2],>256 µg/mL
same,MIC Range,Enterococcus faecalis,>256 µg/mL
same,MIC Range,N. meingitidis,0.125 to 1 µg/mL
same,MIC,L. johnsonii,> 256 µg/mL
same,MIC Range,L. johnsonii,≥256 µg/mL
same,PAE,N. gonorrhoeae; strain FA 1090,4 h
same,PAE,N. gonorrhoeae; strain WHO P,4 h
same,PAE,N. gonorrhoeae; strain WHO Y,4 h
same,MIC,L. jensenii; L. jensenii HM-105,> 256 µg/mL
same,MIC,L. jensenii; L. jensenii HM-372,> 256 µg/mL
same,MIC,L. jensenii; L. jensenii HM-374,> 256 µg/mL
same,MIC,L. jensenii; L. jensenii HM-639,> 256 µg/mL
same,MIC,L. jensenii; L. jensenii HM-640,> 256 µg/mL
same,MIC,L. jensenii; L. jensenii HM-645,> 256 µg/mL
same,MIC,L. jensenii; L. jensenii HM-646,> 256 µg/mL
same,MIC Range,L. jensenii,≥256 µg/mL
same,MIC,L. gasseri; L. gasseri HM-407,> 256 µg/mL
same,MIC,L. gasseri; L. gasseri HM-642,> 256 µg/mL
same,MIC,L. gasseri; L. gasseri HM-644,> 256 µg/mL
same,MIC,L. gasseri; L. gasseri HM-647,> 256 µg/mL
same,MIC Range,L. gasseri,≥256 µg/mL
same,MIC Range,N. lactamica,4 µg/mL
same,MIC Range,N. mucosa,64 µg/mL
same,MIC Range,N. flavescens,64 µg/mL
same,MIC50,N. gonorrhoeae isolates; [6],1 µg/mL
same,MIC90,N. gonorrhoeae isolates; [6],2 µg/mL
same,MIC50,N. gonorrhoeae isolates; [7],1 µg/mL
same,MIC90,N. gonorrhoeae isolates; [7],2 µg/mL
same,MIC Range,N. gonorrhoeae isolates; [6],0.03 to 4 µg/mL
same,MIC Range,N. gonorrhoeae isolates; [7],0.03 to 8 µg/mL
same,MIC,L. crispatus; L. crispatus HM-103,> 256 µg/mL
same,MIC,L. crispatus; L. crispatus HM-371,> 256 µg/mL
same,MIC,L. crispatus; L. crispatus HM-638,> 256 µg/mL
same,MIC Range,L. crispatus,≥256 µg/mL
CC[C@H]1OC(=O)[C@H](C)[C@@H](O[C@H]2C[C@@](C)(OC)[C@@H](O)[C@H](C)O2)[C@H](C)[C@@H](O[C@@H]2O[C@H](C)C[C@H](N(C)C)[C@H]2O)[C@](C)(O)C[C@@H](C)CN(C)[C@H](C)[C@@H](O)[C@]1(C)O [Azithromycin],MIC Range,Lactobacillus casei,0.5 µg/mL
same,MIC Range,Lactobacillus brevis,1 µg/mL
same,MIC Range,Lactobacillus rhamnosus,1 µg/mL
same,MIC Range,Bacteroides dorei,4 to 16 µg/mL
same,MIC Range,Staphylococcus aureus,0.25 µg/mL
same,MIC Range,Escherichia coli,2 µg/mL
same,MIC Range,[1]; [5],0.015 µg/mL
same,MIC Range,[1]; Bacteroides breve (2 strains),0.03 to 0.06 µg/mL
same,MIC Range,[1]; Bacteroides longum (2 strains),0.25 µg/mL
same,MIC Range,Enterococcus faecium,0.25 µg/mL
same,MIC Range,[2],0.03 µg/mL
same,MIC Range,Enterococcus faecalis,2 µg/mL
same,MIC,"[3]; strain CDC-174, agar dilution",1 µg/mL
same,MIC,"[3]; strain CDC-179, agar dilution",8 µg/mL
same,MIC,"[3]; strain CDC-181, agar dilution",256 µg/mL
same,MIC,"[3]; strain WHO-L, agar dilution",0.5 µg/mL
same,MIC,"[3]; strain WHO-X, agar dilution",0.5 µg/mL
same,MIC,"[3]; strain WHO-Y, agar dilution",1 µg/mL
same,MIC,"[3]; strain WHO-Z, agar dilution",1 µg/mL
same,MIC,L. johnsonii,2 µg/mL
same,MIC Range,L. johnsonii,≤1 µg/mL
same,PAE,N. gonorrhoeae; strain FA 1090,6 h
same,PAE,N. gonorrhoeae; strain WHO P,8 h
same,PAE,N. gonorrhoeae; strain WHO Y,4 h
same,MIC,L. jensenii; L. jensenii HM-105,≤ 0.5 µg/mL
same,MIC,L. jensenii; L. jensenii HM-372,1 µg/mL
same,MIC,L. jensenii; L. jensenii HM-374,1 µg/mL
same,MIC,L. jensenii; L. jensenii HM-639,1 µg/mL
same,MIC,L. jensenii; L. jensenii HM-640,≤ 0.5 µg/mL
same,MIC,L. jensenii; L. jensenii HM-645,1 µg/mL
same,MIC,L. jensenii; L. jensenii HM-646,2 µg/mL
same,MIC Range,L. jensenii,≤1 µg/mL
same,MIC,L. gasseri; L. gasseri HM-407,≤ 0.5 µg/mL
same,MIC,L. gasseri; L. gasseri HM-642,2 µg/mL
same,MIC,L. gasseri; L. gasseri HM-644,2 µg/mL
same,MIC,L. gasseri; L. gasseri HM-647,1 µg/mL
same,MIC Range,L. gasseri,≤1 µg/mL
same,MIC,[4],< 1 µg/mL
same,MIC Range,N. lactamica,2 µg/mL
same,MIC Range,N. mucosa,2 µg/mL
same,MIC Range,N. flavescens,2 µg/mL
same,MIC50,N. gonorrhoeae isolates; [6],1 µg/mL
same,MIC90,N. gonorrhoeae isolates; [6],4 µg/mL
same,MIC50,N. gonorrhoeae isolates; [7],1 µg/mL
same,MIC90,N. gonorrhoeae isolates; [7],4 µg/mL
same,MIC Range,N. gonorrhoeae isolates; [6],0.03 to 512 µg/mL
same,MIC Range,N. gonorrhoeae isolates; [7],0.03 to 512 µg/mL
same,MIC,L. crispatus; L. crispatus HM-103,1 µg/mL
same,MIC,L. crispatus; L. crispatus HM-371,2 µg/mL
same,MIC,L. crispatus; L. crispatus HM-638,1 µg/mL
same,MIC Range,L. crispatus,≤1 µg/mL
